Assay results from US20230277449A1, “ORAL CAVITY POLYMERIC DELIVERY SYSTEMS” (YISSUM RESEARCH DEVELOPMENT COMPANY OF THE HEBREW …, priority 2020, published 2023).
Like-named read-outs stand apart in the source and are kept apart here.

Tests used:
[1] = cited from earlier work
[2] = Intravenous administration of APO to rats; format: in vivo; conditions: male, Wistar, rat, plasma, 2.0 mg/kg IV
Method: Prior to surgery rats were fasted overnight with free access to water. Animals were anesthetized for the period of surgery by intra-peritoneal injection of 1 ml/kg of ketamine-xylazine solution (9:1, respectively). An indwelling cannula was placed in the right jugular vein of each animal for systemic blood sampling. After the surgery, rats were returned to cages overnight with free access to food and water.
Following this analysis, PK parameters were obtained.

[3] = Ex-vivo permeability of APO, MTP and ATN in Ussing diffusion chamber; format: in vitro ADME, pig
Text: Each chamber includes a heating block for temperature control and needle valves for adjustment of carbogen gas flow for oxygenation and gas lift stirring. Buccal tissues of female pigs, ~100 kg, were used in the experiments. Pigs were exposed to anesthetic agents, antibiotics, contrast agents and sacrificed by over exposure to KC1. […] Immediately following euthanasia, buccal tissue was removed and placed in ice-cold modified Ringer’s buffer (pH 7.4). Buccal mucosa segments were trimmed to 800-1000 µm by surgical scissors and tweezers and mounted into Ussing diffusion chambers. The exposed tissue surface area was 0.5 cm^2 and buffered solutions volume in each cell was 3 ml. The system was preheated to 35° C. Modified Ringer buffer was added to the receiver compartment and simulated saliva buffer to the donor side. The tissue oxygenation and the solution mixing were performed by bubbling with carbogen gas. The system was equilibrated for 30 min followed by replacing the solutions and adding 20 µl of the test solutions to the donor side of the chamber to commence the experiment.
Solutions were freshly prepared on the days of the experiments. […] When testing the effect of organic solvents, 100 µl of the simulated saliva in the donor chamber were replaced by 100 µl of 1:1EtOH:PG solution. When testing the effect of NLF 70 µl of the simulated saliva in the donor chamber were replaced by 70 µl of NLF. […] The constituents are melted at 37° C. and mixed until a clear yellow homogenous solution is obtained.
3.1.3 Experimental protocol: 100 µl samples were taken from receiver compartment at the beginning of the experiments, at half an hour and every hour until the end of the experiments. 100 µl of fresh Ringer’s buffer solution were added each time to receiver compartment. The dilution of the concentration of tested substances in the receiver compartment was accounted for. […] All samples were stored at -20° C. pending analysis.
The analysis conditions were as follows: XTerra MS (Waters Inc.) C18 Column (3.5 µm, 2.1 mm × 100 mm), temperature 45° C., flow rate 0.2 ml/min and mobile phase with a linear gradient as detailed in Table 23.
Statistical significance was stated for p<0.05. […] Papp calculation and simulations of steady state plasma levels for in-vivo testing
Apparent permeability (Papp) is calculated by Eq. 5: […]

For `CN1CCc2cccc3c2[C@H]1Cc1ccc(O)c(O)c1-3` [APO, apomorphine], the “log P” value [1] is given as 2.0, the clearance [2] is given as 153 mL/min/kg and the Vd ([2]; read-out: volume of distribution) is given as 3.3 L/kg. The “Papp lower at pH 5.9 than at pH 7.4” value [3] was 6 fold, the Papp at […] ([3]; female, pig, pH 7.4, read-out: Apparent permeability (Papp)) was 3.13 ×10⁻⁶ cm/s and the Papp ([3]; female, pig, pH 7.4 with 3.33% v/v of 1:1 ethanol: propylene glycol solution, read-out: Apparent permeability (Papp)) was 11.6 ×10⁻⁶ cm/s. The Papp at 0.1 mM ([3]; female, pig, simulated saliva pH 5.9, mean (±SD), n=3, read-out: Apparent permeability (Papp)) was 0.51 ×10⁻⁶ cm/s, the Papp at 0.1 mM ([3]; female, pig, simulated saliva pH 7.4, standard 0.1 mM, mean (±SD), n=3, read-out: Apparent permeability (Papp)) was 3 ×10⁻⁶ cm/s and the “Apparent permeability (Papp)” value ([3]; pH 7.4 with 3.33% v/v of 1:1 ethanol: propylene glycol solution) was 11.63 10^-6 cm/sec. For the same molecule, the lag-time ([3]; pH 7.4 without 10% v/v NLF) was ~ 1 hour and the “Apparent permeability (Papp)” value ([3]; simulated saliva pH 7.4, standard 0.1 mM, mean (±SD), n=3) was 3.00 (0.26) 10^-6 cm/sec.
